Literature values in US20210290563A1, “COMPOSITIONS AND METHODS FOR TREATING NEUROP[…]” (BIONICHE GLOBAL DEVELOPMENT, LLC, priority 2017, published 2021).
Like-named read-outs stand apart in the source and are kept apart here.

How the values were obtained:
[1] = not given; remark: listed apart in the source

Compound | solubility in water | bioavailability estimates ([1]; buccal administration) [%] | bioavailability estimates ([1]; intramuscular administration) [%] | bioavailability estimates ([1]; intranasal administration) | bioavailability estimates ([1]; intravenous administration) [%] | bioavailability estimates ([1]; oral administration) | bioavailability estimates ([1]; rectal administration) [%] | bioavailability estimates ([1]; transdermal administration) [%]
CC(C)c1cccc(C(C)C)c1OCOP(=O)(O)O [Fospropofol disodium] | water-soluble |  |  |  |  |  |  | 
CC(C)c1cccc(C(C)C)c1O [Propofol, 2,6-diisopropylphenol] | only sparingly soluble in water | ~50 | ~93 | 25-50% | ~100 | 13-27% | ~25 | ~10
